Converted amounts (≈) assume the structure as drawn. One block for each molecule: values may come before it.
How the values were obtained:
human TRPV1 = molecular target: T1, human TRPV1 (Homo sapiens, UniProt Q8NER1); assay: FLIPR calcium assay to detect calcium influx in CHO-huTrpV1 cells (antagonism of NADA response); assay type: cell-based; conditions: stimulated with 2.5 μM NADA (EC80), FLIPR calcium 6, read-out: IC50, antagonist effect against human TRPV1
T1 construct: expressed in transfected cells; host or cells: CHO (Chinese Hamster Ovary) cells, geneticin-selected
Description: Chinese Hamster Ovary (CHO) cells transfected to express human TrpV1 receptor (which are herein referred to as CHO-huTrpV1 cells), were grown in F-12 Ham's Nutrient Mixture media (HyClone SH30026.01) supplemented with 10% Fetal Bovine Serum (Invitrogen #26140-079), 1% Antibiotic/antimycotic (Invitrogen #15240-062) and 500 μg/mL geneticin (ThermoFisher scientific #1031035). Cells were grown in T-75 flasks at 37° C. incubater with 5% CO2. The cells were passaged twice a week at a ratio of 1:10 to 1:20 to maintain steady growth. For experimentation, cells were harvarsted at approximately 80% confluency and plated onto 384 well black cell culture plates (cat #781091, Greinier Bio-One Inc.) at 15,000 cells per well in 20 μl media and grown overnight.
The loading dye was prepared following instruction of Calcium 6 assay kit ([…], #R8190): 10 ml buffer from bottle B was added to 1 vial of bottle A (adapted to room temperature from −20° C.) and mixed well, then 2.5 mM of fresh prepared probenecid was added and mixed well. 20 μl/well of loading dye was added on top of the cells, and incubated at 37° C. for 1 hour 30 min.
Assay buffer preparation: 1×HBSS, 2 mM HEPES, 0.1% BSA plus 2.5 mM freshly prepared probenecid (Invitrogen, #P36400). 25 μl/well assay buffer in 384 well clear plate (cat #782281, Greiner Bio-one) was dispensed with buffer distributor (Multidrop ComB1 from Thermo Scientific). The compounds were in 384 Echo plate (cat #LPL0200, Labcyte) and the starting concentration of compound was 10 mM, then 1 to 3 serial dilution in 100% DMSO, 8 ul/well). 125 nl compounds was transferred to the 384 well plate containing 25 μl/well buffer with Echo® 555 Liquid Handler (Labcyte), such that the compound concentration was 5 fold of final concentration. The plate was shook slowly at 40 rpm/min for 10 min to mix. […]
After compounds were added to the cell plate with loading dye, within 10-15 minutes, cell plate and plate containing NADA was placed into the FLIPR (Fluorescent Imaging Plate Reader) instrument (Tetra System, Molecular device). […]

[1] = Hydrate formation on equilibration in aqueous fluid; assay type: physicochemical; conditions: equilibrated at 4° C. in water, methanol/water (33:67, 42:58), after 2 weeks and 4 weeks
Solubility in solvents = assay type: physicochemical; conditions: organic solvent or mixture
Description: Compound I is poorly soluble (between 1 and 25 mg/ml) in acetonitrile, dicholormethane, methyl-tert-butyl ether, nitromethane. In toluene and heptane, compound I is sparingly soluble (<1 mg/ml).

[2] = Solid form stability (humidity exposure, compression, grinding, granulation); assay type: physicochemical
Hygroscopicity by DVS = assay type: physicochemical

T1 sequence (Q8NER1 whole entry): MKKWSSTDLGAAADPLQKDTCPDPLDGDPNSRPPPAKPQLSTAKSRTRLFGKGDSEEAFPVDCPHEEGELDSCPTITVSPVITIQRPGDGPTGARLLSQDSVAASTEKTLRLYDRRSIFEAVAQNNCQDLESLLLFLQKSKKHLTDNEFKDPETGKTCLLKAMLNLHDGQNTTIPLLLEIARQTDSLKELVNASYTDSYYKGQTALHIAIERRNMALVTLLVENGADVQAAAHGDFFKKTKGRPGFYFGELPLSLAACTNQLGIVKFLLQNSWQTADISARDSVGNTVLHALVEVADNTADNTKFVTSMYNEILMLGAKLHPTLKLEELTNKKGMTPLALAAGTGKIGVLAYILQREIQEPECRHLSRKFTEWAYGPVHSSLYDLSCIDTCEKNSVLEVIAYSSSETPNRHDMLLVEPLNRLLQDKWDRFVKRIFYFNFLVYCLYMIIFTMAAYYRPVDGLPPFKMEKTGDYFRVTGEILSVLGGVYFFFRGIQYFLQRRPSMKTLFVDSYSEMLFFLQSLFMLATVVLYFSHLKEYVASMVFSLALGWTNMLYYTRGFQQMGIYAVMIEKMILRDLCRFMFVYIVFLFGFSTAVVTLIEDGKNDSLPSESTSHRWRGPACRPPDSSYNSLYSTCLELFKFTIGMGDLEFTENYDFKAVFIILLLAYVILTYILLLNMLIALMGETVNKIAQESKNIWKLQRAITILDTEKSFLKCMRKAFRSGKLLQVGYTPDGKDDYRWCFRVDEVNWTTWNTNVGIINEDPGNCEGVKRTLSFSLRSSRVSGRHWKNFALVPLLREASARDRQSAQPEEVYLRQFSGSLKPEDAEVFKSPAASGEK

IC50 (human TRPV1): 10.4 nM
Compound: OCC(O)c1cc(F)c(CN[C@H]2C[C@H](Oc3ccc(F)c(C(F)(F)F)c3)C2)c2ccncc12 (mixture of isomers) [Example 1 (mixture of isomers), 1-(6-fluoro-5-((((1r,3r)-3-(4-fluoro-3-(trifluoromethyl)phenoxy)cyclobutyl)amino)methyl)isoquinolin-8-yl)ethane-1,2-diol]

Hydrate formation [1]: not observed to form a hydrate
solubility (Solubility in solvents; organic solvents and alcohol/water mixtures, acetone, 1,4-dioxane, ethanol, ethyl acetate, isopropyl acetate, methanol, 2-methyl-2-butanol, tetrahydrofuran, 1-propanol/water (98.5:1.5), 2-propanol/water (96:4), methanol/water (78:22)): > 25 mg/mL
solubility (Solubility in solvents; organic solvents, acetonitrile, dicholormethane, methyl-tert-butyl ether, nitromethane): 1 to 25 mg/mL (≈ 2.13 to 53.4 mM)
solubility (Solubility in solvents; organic solvents, toluene and heptane): < 1 mg/mL
IC50 (human TRPV1): 0.62 nM
Compound: OC[C@@H](O)c1cc(F)c(CN[C@H]2C[C@H](Oc3ccc(F)c(C(F)(F)F)c3)C2)c2ccncc12 (single isomer, unassigned)

IC50 (human TRPV1): 6.3 nM
Compound: OC[C@H](O)c1cc(F)c(CN[C@H]2C[C@H](Oc3ccc(F)c(C(F)(F)F)c3)C2)c2ccncc12 [(R)-1-(6-fluoro-5-((((1r,3R)-3-(4-fluoro-3-(trifluoromethyl)phenoxy)cyclobutyl)amino)methyl)isoquinolin-8-yl)ethane-1,2-diol]

Change after humidity exposure ([2]; 92% RH for 24 h): did not result in change
Form change after compression ([2]; compression, only minor peak broadening): no form change
Form change under grinding and granulation ([2]; dry grinding and wet granulation with water and ethanol (XRPD, FIG. 4)): did not show form change
Hygroscopicity by DVS (Hygroscopicity by DVS; DVS): slightly hygroscopic
Solid state change after DVS (Hygroscopicity by DVS; DVS up to 95% RH): no change in solid state
Water vapor absorbed (Hygroscopicity by DVS; DVS, at 95% RH): approximately 0.4%
Compound: OC[C@@H](O)c1cc(F)c(CN[C@H]2C[C@H](Oc3ccc(F)c(C(F)(F)F)c3)C2)c2ccncc12 [Compound I Form A, (S)-1-(6-fluoro-5-((((1r,3S)-3-(4-fluoro-3-(trifluoromethyl)phenoxy)cyclobutyl)amino)methyl)isoquinolin-8-yl)ethane-1,2-diol]

Source: patent US20260193188A1, “CRYSTALLINE POLYMORPH FORMS OF A TRPV1 ANTAGONIST AND FORMULATIONS THEREOF” (Bausch + Lomb Ireland Limited, priority 2022, published 2026)
